Source: publication PMC10424179, “Disrupting Kaposi’s Sarcoma-Associated Herpesvirus (KSHV) Latent Replication with a Small Molecule Inhibitor” (Journal of Medicinal Chemistry, 2023)
Converted amounts (≈) assume the structure as drawn.

Legend:
Caco-2 cell permeability = type: in vitro ADME; details: human, pH 7.4, Caco-2 monolayer, apical to basolateral
Protocol: (§1) The next step was an in vitro ADMET profiling of the best seven compounds so far: 9, 11, 14, 19, 20, 21, and 27. The compounds were tested for their kinetic solubility (1% DMSO in PBS, pH 7.4), lipophilicity (chromatographic Log D7.4 value), cellular permeability (using Caco-2 cells), and metabolic stability (using mouse and human liver S9 fractions) (see Table 3).
MTT Assay: Viability of HEK293 cells ~48 hours after treatment […]
Fig S4: MTT assay for compounds 11, 14, 19, 20 and 21 using HEK293 cells. Values are means of […]
Permeability of the compounds was assessed using Caco2 monolayers grown on Transwell® (3460 Costar, Corning). In brief, cells were seeded 60.000 cells/well in 12-well Transwell plates in DMEM medium supplemented with 10% FCS and 1% NEAA. Cells were grown for 7 to 9 days with medium replacement every other day until they reached a tight monolayer. Tightness was defined as transepithelial resistance (TEER) values >300 Ω/cm² (measured using an EVOM Volt-Ohmmeter, World Precision Instruments). At the day of permeability as say, the compound stock solutions in DMSO were diluted to 10µM in Krebs -Ringer-buffer (KRB, pH 7.4). Cells treated with KRB only served as control. Monolayer was washed two times with prewarmed KRB and incubated with 500 µl sample on the apical compartment. Samples from the basolateral side were drawn at t = 0, 15, 30, 60, 120, 180 and 300 min and replaced with fresh buffer. The plates were incubated for 5 h in a cell culture incubator with lateral shaking (200 rpm). TEER values were measured again at the end of the permeability test. Compound concentration was determined with HPLC-ESI-MS/MS in SRM mode and calculated for the cumulative transport. Values are means of three replicates.

Kinetic solubility = type: physicochemical; details: PBS with 1% DMSO; 1% DMSO in PBS, pH 7.4
Protocol: as §1
The desired compounds were sequentially diluted in DMSO in a 96-well plate. 1.5 µL of each well were transferred into another 96-well plate and mixed with 148.5 µL of PBS. Plates were shaken for 5 min at 600 rpm at room temperature (r.t.), and the absorbance at 620 nm was measured. Absorbance values were normalized by blank subtraction and plotted using GraphPad Prism 8.4.2 (GraphPad Software, San Diego, CA, USA). Solubility (S) was determined based on the First X value of AUC function using a threshold of 0.005. […]

[1] = Metabolic stability in human liver S9 fraction; type: in vitro ADME; details: human liver S9, 1 μM compound; for microsomal CLint at 1 µM: read-out: MetStab Human Liver S9 Clint; for half-life at 1 µM: read-out: MetStab Human Liver S9 t1/2
Protocol: as §1, with “3). […]” for “3).”
(§2) 1.7 Metabolic Stability in Liver S9 Fractions
(§3) For the evaluation of combined phase I and phase II metabolic stability, the compound (1 μM) was incubated with 1 mg/mL pooled mouse liver S9 fraction (Xenotech, Kansas City, USA) or human liver S9 fraction (Corning, USA), 2 mM NADPH, 1 mM UDPGA, 10 mM MgCl 2, 5 mM GSH and 0.1 mM PAPS at 37 °C for 240 min. The metabolic stability of testosterone, verapamil and ketoconazole were determined in parallel to confirm the enzymatic activity of mouse S9 fractions, for human S9 testosterone, diclofenac and propranolol were used. The incubation was stopped after defined time points by precipitation of aliquots of S9 enzymes with 2 volumes of cold acetonitrile containing internal standard (150 nM diphenhydramine). Samples were stored on ice until the end of the incubation and precipitated protein was removed by centrifugation (15 min, 4 °C, 4,000 g). Concentration of the remaining test compound at the different time points was analyzed by HPLC-MS/MS (TSQ Quantum Access MAX, Thermo Fisher, Dreieich, Germany) and used to determine half -life (t1/2). Values are means of three

[2] = biological target: LANA–DNA interaction (oligomerization-deficient LANA DBD aa 1008–1146 mutant / LBS1) (Human herpesvirus 8 (Kaposi's sarcoma-associated herpesvirus), UniProt Q76SB0); experiment: Electrophoretic mobility shift assay (EMSA), LANA DBD mutant with LBS1 oligonucleotide; type: biochemical, Kaposi's sarcoma-associated herpesvirus (KSHV); details: compound at 250 μM; LBS1 oligonucleotide; LANA aa 1008–1146 mutant
Protocol: (§4) In these assays, an oligomerization-deficient mutant of a LANA C-terminal protein fragment (aa 1008–1146) and an oligonucleotide representing LANA-binding site (LBS) 1 were used, which are convenient to use and handle for the described biophysical methods, while maintaining the essential DNA-binding interface.[25]
Equation y = A2 + (A1-A2)/(1 + (x/x0)^p) […]
1.4 Electrophoretic Mobility Shift Assay (EMSA)
The EMSA was carried out with slight modific ations as described previously 2 based on the assay in Hellert et al. (2013). 3 His-tagged oligomerization-deficient LANA DBD (aa1008-1146) mutant protein or LANA DBD (aa934-1162) wild type protein (200 nM final) was incubated with a 5´-Dy682-labeled double stranded DNA probe (IBA Lifesciences) (20 nM final) for 30 minutes at RT in the dark. The reaction buffer consisted of 30 mM Tris HCl pH 7.5, 50 mM KCl, 10 mM MgCl2, 1 mM DTT, 1 mM EDTA, 10% glycerol, 0.25% Tween20, 0.5 mg/mL BSA and 0.05 mg/mL poly(dI-dC). […]
dark. 10 µL of the reaction was run on a pre -run native 5% acrylamide gel for 45 minutes at 100V with tris-borate-EDTA buffer. Images of the gels were acquired and analysed with the Odyssey (Licor) using the Image Studio software.
Fig S2: Gels of EMSA experiments at 250 μM for all compounds (A) and dose-dependent curves for compound 20 using LANA DBD mutant (B) and LANA wildtype (C) as well as LBS1. Values are means […]
Gleichung y = A2 + (A1-A2)/(1 + (x/x0)^p) […]

[3] = Metabolic stability in mouse liver S9 fraction; type: in vitro ADME; details: pooled liver S9 fraction, mouse liver S9, 1 μM compound; for microsomal CLint at 1 µM: read-out: MetStab Mouse Liver S9 Clint; for half-life at 1 µM: read-out: MetStab Mouse Liver S9 t1/2
Protocol: as §1, with “3). […]” for “3).”
as §2, §3

Chromatographic LogD7.4 = type: physicochemical; details: reversed-phase HPLC, NUCLEODUR C18 Pyramid column; pH 7.4, HPLC-MS based; read-out: Chrom. LogD7.4
Protocol: as §1, with “3). […]” for “3).”
LogD7.4 was analyzed using an HPLC−MS based method. The retention time of 12 compounds with known LogD7.4 was determined and plotted toward their LogD7.4. Linear regression was used to determine the LogD7.4 of unknown compounds. Analysis was performed using a Dionex Ultimate 3000 HPLC system coupled to a TSQ Quantum Access MAX (Thermo Fisher, Dreieich, Germany) with the following conditions: EC150/2 NUCLEODUR C18 Pyramid column, 5 μM (Macherey Nagel, Düren, Germany); eluent A: 50 mM NH4OAc pH 7.4, eluent B: acetonitrile, and flow: 0.6 mL/min. The gradient was set to 0−100% B from 0 to 2.5 min, […]
are means of two replicates. […]

[4] = biological target: T1, oligomerization-deficient mutant of a LANA C-terminal protein fragment (aa 1008–1146) (Human herpesvirus 8 (Kaposi's sarcoma-associated herpesvirus), UniProt Q76SB0); experiment: Microscale thermophoresis (MST) binding assay; parameters: species or system Kaposi's sarcoma-associated herpesvirus (KSHV); details: read-out: KD value (MST); LANA aa 1008–1146 mutant; means of at least three replicates
T1 sequence (Q76SB0 1008-1146): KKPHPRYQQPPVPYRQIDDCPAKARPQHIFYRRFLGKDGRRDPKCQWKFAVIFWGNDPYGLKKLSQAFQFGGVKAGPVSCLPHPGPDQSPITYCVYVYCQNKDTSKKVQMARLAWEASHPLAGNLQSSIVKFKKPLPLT
Source text: as §4
Equation y = A2 + (A1-A2)/(1 + (x/x0)^p)
1.3 Microscale Thermophoresis (MST) Assay
Microscale Thermophoresis Assay was done as mentioned in a previous publication. 2

LANA = biological target: LANA; parameters: method as in PMID 30888817; details: cited from earlier work

Row | SMILES | Papp A→B at 5 h, 10 µM (Caco-2 cell permeability) [×10⁻⁶ cm/s] | solubility kinetic at 5 min (Kinetic solubility) [µM] | microsomal CLint at 1 µM [1] [µL/min/mg] | half-life at 1 µM [1] [h] | Inhibition (EMSA, LBS1) @250 μM [2] [%] | microsomal CLint at 1 µM [3] [µL/min/mg] | half-life at 1 µM [3] [h] | chromatographic logD (Chromatographic LogD7.4) | Kd [4] [µM] | Kd (LANA) [µM]
1 | COc1ncc(C)cc1-c1cc(C)c(-n2cc(-c3ccc(C(=O)O)cc3)nn2)cn1 [Compound 11] | 9.6 ± 1.4 | > 200 | < 5.8 | > 2 | 96 | < 5.8 | > 2 | 0.42 | 18.8 ± 2.1 | 
2 | Cc1cc(-c2ccccc2Cl)ncc1-n1cc(-c2ccc(C(=O)O)cc2)nn1 [Compound 14] | 14.2 ± 1.8 | > 200 | < 5.8 | > 2 | 92 | < 5.8 | > 2 | 0.67 | 4.2 ± 0.6 | 
3 | COc1ccc(-c2cc(C)c(-n3cc(-c4ccc(C(=O)O)cc4)nn3)cn2)cc1 [Compound 19] | 16.5 ± 4.7 | > 200 | < 5.8 | > 2 | 69 | < 5.8 | > 2 | 0.46 | 5.4 ± 1.8 | 
4 | Cc1cc(-c2ccccc2O)ncc1-n1cc(-c2ccc(C(=O)O)cc2)nn1 [Compound 21] | 8.8 ± 1.1 | 137 ± 20 (≈ 51 µg/mL) | < 5.8 | > 2 | 94 | < 5.8 | > 2 | 0.62 | 18.8 ± 2.2 | 
5 | Cc1cc(-c2ccc(C(=O)O)cc2)ncc1-n1cc(-c2ccc(C(=O)O)cc2)nn1 [Compound 27] | 0.5 ± 0.2 | > 200 | < 5.8 | > 2 | 98 | < 5.8 | > 2 | -1.92 | 11.4 ± 3.6 | 
6 | O=C(O)c1ccc(-c2cn(-c3cccnc3)nn2)cc1 [hit I] |  |  |  |  |  |  |  |  |  | 23
